Assay results reported in the NIST ThermoML archive (doi:10.1021/acs.jced.8b01004).
Numbers after ± are expanded uncertainties.

Assay: xn = mol fraction of the nth substance listed
Settings: 100 kPa, Liquid; for viscosity: Falling or rolling sphere viscometry; for mass density: Vibrating tube method

OC1CCCC1 [cyclopentanol] + CC1CCCCC1
Settings	mass density [kg/m3]	viscosity [mPa·s]
293.15 K, x2 = 0	946.99 ± 1.5	11.88 ± 0.25
293.15 K, x2 = 0.0995	924.17 ± 1.5	7.639 ± 0.16
293.15 K, x2 = 0.2005	902.36 ± 1.4	4.929 ± 0.11
293.15 K, x2 = 0.2971	882.38 ± 1.4	3.505 ± 0.076
293.15 K, x2 = 0.4001	862.34 ± 1.4	2.41 ± 0.052
293.15 K, x2 = 0.5014	843.89 ± 1.4	1.793 ± 0.039
293.15 K, x2 = 0.5994	827.06 ± 1.3	1.396 ± 0.03
293.15 K, x2 = 0.6828	813.6 ± 1.3	1.166 ± 0.025
293.15 K, x2 = 0.7949	796.76 ± 1.3	0.96 ± 0.021
293.15 K, x2 = 0.8975	782.42 ± 1.3	0.826 ± 0.018
298.15 K, x2 = 0	943.05 ± 1.5	9.722 ± 0.21
298.15 K, x2 = 0.0995	920.12 ± 1.5	6.316 ± 0.14
298.15 K, x2 = 0.2005	898.22 ± 1.4	4.183 ± 0.089
298.15 K, x2 = 0.2971	878.17 ± 1.4	3.03 ± 0.065
298.15 K, x2 = 0.4001	858.07 ± 1.4	2.123 ± 0.045
298.15 K, x2 = 0.5014	839.58 ± 1.4	1.602 ± 0.034
298.15 K, x2 = 0.5994	822.73 ± 1.3	1.268 ± 0.027
298.15 K, x2 = 0.6828	809.25 ± 1.3	1.071 ± 0.023
298.15 K, x2 = 0.7949	792.38 ± 1.3	0.89 ± 0.019
298.15 K, x2 = 0.8975	778.04 ± 1.3	0.772 ± 0.017
303.15 K, x2 = 0	939.05 ± 1.5	8.068 ± 0.17
303.15 K, x2 = 0.0995	916.02 ± 1.5	5.48 ± 0.12
303.15 K, x2 = 0.2005	894.03 ± 1.4	3.587 ± 0.077
303.15 K, x2 = 0.2971	873.91 ± 1.4	2.644 ± 0.057
303.15 K, x2 = 0.4001	853.76 ± 1.4	1.885 ± 0.04
303.15 K, x2 = 0.5014	835.24 ± 1.3	1.445 ± 0.031
303.15 K, x2 = 0.5994	818.37 ± 1.3	1.16 ± 0.025
303.15 K, x2 = 0.6828	804.87 ± 1.3	0.989 ± 0.021
303.15 K, x2 = 0.7949	787.97 ± 1.3	0.827 ± 0.018
303.15 K, x2 = 0.8975	773.63 ± 1.2	0.722 ± 0.016
308.15 K, x2 = 0	935 ± 1.5	7.077 ± 0.15
308.15 K, x2 = 0.0995	911.87 ± 1.5	4.66 ± 0.099
308.15 K, x2 = 0.2005	889.79 ± 1.4	3.099 ± 0.066
308.15 K, x2 = 0.2971	869.61 ± 1.4	2.324 ± 0.05
308.15 K, x2 = 0.4001	849.41 ± 1.4	1.685 ± 0.036
308.15 K, x2 = 0.5014	830.86 ± 1.3	1.312 ± 0.028
308.15 K, x2 = 0.5994	813.97 ± 1.3	1.065 ± 0.023
308.15 K, x2 = 0.6828	800.45 ± 1.3	0.916 ± 0.02
308.15 K, x2 = 0.7949	783.54 ± 1.3	0.771 ± 0.017
308.15 K, x2 = 0.8975	769.19 ± 1.2	0.677 ± 0.015
313.15 K, x2 = 0	930.91 ± 1.5	6.04 ± 0.13
313.15 K, x2 = 0.0995	907.67 ± 1.5	4.046 ± 0.086
313.15 K, x2 = 0.2005	885.51 ± 1.4	2.695 ± 0.058
313.15 K, x2 = 0.2971	865.27 ± 1.4	2.055 ± 0.044
313.15 K, x2 = 0.4001	845.02 ± 1.4	1.514 ± 0.032
313.15 K, x2 = 0.5014	826.44 ± 1.3	1.196 ± 0.026
313.15 K, x2 = 0.5994	809.53 ± 1.3	0.982 ± 0.021
313.15 K, x2 = 0.6828	796 ± 1.3	0.851 ± 0.018
313.15 K, x2 = 0.7949	779.07 ± 1.3	0.721 ± 0.016
313.15 K, x2 = 0.8975	764.73 ± 1.2	0.636 ± 0.014
318.15 K, x2 = 0	926.75 ± 1.5	5.19 ± 0.11
318.15 K, x2 = 0.0995	903.41 ± 1.4	3.487 ± 0.074
318.15 K, x2 = 0.2005	881.17 ± 1.4	2.361 ± 0.05
318.15 K, x2 = 0.2971	860.88 ± 1.4	1.828 ± 0.039
318.15 K, x2 = 0.4001	840.59 ± 1.4	1.368 ± 0.029
318.15 K, x2 = 0.5014	821.99 ± 1.3	1.093 ± 0.023
318.15 K, x2 = 0.5994	805.06 ± 1.3	0.907 ± 0.019
318.15 K, x2 = 0.6828	791.51 ± 1.3	0.793 ± 0.017
318.15 K, x2 = 0.7949	774.57 ± 1.2	0.677 ± 0.015
318.15 K, x2 = 0.8975	760.23 ± 1.2	0.6 ± 0.013
323.15 K, x2 = 0	922.53 ± 1.5	4.441 ± 0.095
323.15 K, x2 = 0.0995	899.09 ± 1.4	3.037 ± 0.065
323.15 K, x2 = 0.2005	876.78 ± 1.4	2.081 ± 0.044
323.15 K, x2 = 0.2971	856.11 ± 1.4	1.635 ± 0.035
323.15 K, x2 = 0.4001	836.11 ± 1.4	1.241 ± 0.027
323.15 K, x2 = 0.5014	817.49 ± 1.3	1.004 ± 0.022
323.15 K, x2 = 0.5994	800.54 ± 1.3	0.842 ± 0.018
323.15 K, x2 = 0.6828	786.98 ± 1.3	0.74 ± 0.016
323.15 K, x2 = 0.7949	770.03 ± 1.2	0.636 ± 0.014
323.15 K, x2 = 0.8975	755.7 ± 1.2	0.566 ± 0.012
328.15 K, x2 = 0	918.24 ± 1.5	3.83 ± 0.082
328.15 K, x2 = 0.0995	894.72 ± 1.4	2.674 ± 0.057
328.15 K, x2 = 0.2005	872.33 ± 1.4	1.843 ± 0.039
328.15 K, x2 = 0.2971	851.95 ± 1.4	1.472 ± 0.031
328.15 K, x2 = 0.4001	831.58 ± 1.3	1.13 ± 0.024
328.15 K, x2 = 0.5014	812.94 ± 1.3	0.924 ± 0.02
328.15 K, x2 = 0.5994	795.97 ± 1.3	0.782 ± 0.017
328.15 K, x2 = 0.6828	782.41 ± 1.3	0.692 ± 0.015
328.15 K, x2 = 0.7949	765.45 ± 1.2	0.599 ± 0.013
328.15 K, x2 = 0.8975	751.14 ± 1.2	0.537 ± 0.012
333.15 K, x2 = 0	913.89 ± 1.5	3.312 ± 0.07
333.15 K, x2 = 0.0995	890.28 ± 1.4	2.366 ± 0.05
333.15 K, x2 = 0.2005	867.83 ± 1.4	1.642 ± 0.035
333.15 K, x2 = 0.2971	847.4 ± 1.4	1.329 ± 0.028
333.15 K, x2 = 0.4001	827 ± 1.3	1.033 ± 0.022
333.15 K, x2 = 0.5014	808.34 ± 1.3	0.853 ± 0.018
333.15 K, x2 = 0.5994	791.36 ± 1.3	0.731 ± 0.016
333.15 K, x2 = 0.6828	777.79 ± 1.3	0.65 ± 0.014
333.15 K, x2 = 0.7949	760.84 ± 1.2	0.566 ± 0.012
333.15 K, x2 = 0.8975	746.55 ± 1.2	0.51 ± 0.011
338.15 K, x2 = 0	909.48 ± 1.5	2.886 ± 0.061
338.15 K, x2 = 0.0995	885.78 ± 1.4	2.109 ± 0.045
338.15 K, x2 = 0.2005	863.28 ± 1.4	1.471 ± 0.031
338.15 K, x2 = 0.2971	842.8 ± 1.4	1.205 ± 0.026
338.15 K, x2 = 0.4001	822.37 ± 1.3	0.948 ± 0.02
338.15 K, x2 = 0.5014	803.69 ± 1.3	0.79 ± 0.017
338.15 K, x2 = 0.5994	786.71 ± 1.3	0.683 ± 0.015
338.15 K, x2 = 0.6828	773.13 ± 1.2	0.611 ± 0.013
338.15 K, x2 = 0.7949	756.2 ± 1.2	0.536 ± 0.012
338.15 K, x2 = 0.8975	741.93 ± 1.2	0.486 ± 0.011
343.15 K, x2 = 0	904.99 ± 1.4	2.53 ± 0.054
343.15 K, x2 = 0.0995	881.21 ± 1.4	1.879 ± 0.04
343.15 K, x2 = 0.2005	858.67 ± 1.4	1.326 ± 0.029
343.15 K, x2 = 0.2971	838.13 ± 1.4	1.108 ± 0.024
343.15 K, x2 = 0.4001	817.69 ± 1.3	0.873 ± 0.019
343.15 K, x2 = 0.5014	799 ± 1.3	0.734 ± 0.016
343.15 K, x2 = 0.5994	782.01 ± 1.3	0.641 ± 0.014
343.15 K, x2 = 0.6828	768.43 ± 1.2	0.577 ± 0.012
343.15 K, x2 = 0.7949	751.51 ± 1.2	0.517 ± 0.011
343.15 K, x2 = 0.8975	737.27 ± 1.2	0.464 ± 0.01
